From ChEMBL document CHEMBL1955759, “Influence of susceptibility to hydrolysis and hydrophobicity of arylsemicarbazones on their anti-nociceptive and anti-inflammatory activities” (Eur J Med Chem, 2012)
Active and inactive are the calls of the source. No cut-off for these calls is given here.

Assays:
[1] = system: Mus musculus; assay: Antinociceptive activity in Swiss mouse assessed inhibition of formaldehyde-induced paw licking at 0.31 mmol/kg, ip administered 30 mins prior to formaldehyde-challenge measured from 15 to 30 mins; format: functional, organism-based
[2] = n-Octanol-water distribution coefficient, log K of the compound by shake flask method; format: physicochemical; details: read-out: log KOW
[3] = system: Mus musculus; assay: Antinociceptive activity in Swiss mouse assessed as inhibition of zymosan A-induced writhing response at 0.16 mmol/kg, ip administered 30 mins prior to zymosan A-challenge; format: functional, organism-based
[4] = system: Mus musculus; assay: Antinociceptive activity in Swiss mouse assessed inhibition of formaldehyde-induced paw licking at 0.31 mmol/kg, ip administered 30 mins prior to formaldehyde-challenge measured up to 5 mins; format: functional, organism-based
[5] = system: Rattus norvegicus; assay: Antiinflammatory activity in Wistar rat assessed as inhibition of carrageenan-induced paw edema at 0.31 mmol/kg, ip administered 30 mins prior to carrageenan-challenge measured up to 6 hrs; format: functional, organism-based
[6] = system: Rattus norvegicus; assay: Antiinflammatory activity in Wistar rat assessed as inhibition of carrageenan-induced paw edema at 0.62 mmol/kg, ip administered 30 mins prior to carrageenan-challenge measured up to 6 hrs; format: functional, organism-based
[7] = system: Mus musculus; assay: Antinociceptive activity in Swiss mouse assessed as inhibition of zymosan A-induced writhing response at 0.31 mmol/kg, ip administered 30 mins prior to zymosan A-challenge; format: functional, organism-based
[8] = system: Mus musculus; assay: Antinociceptive activity in Swiss mouse assessed as inhibition of zymosan A-induced writhing response at 0.62 mmol/kg, ip administered 30 mins prior to zymosan A-challenge; format: functional, organism-based
[9] = system: Mus musculus; assay: Antinociceptive activity in ip dosed Swiss mouse assessed as inhibition of zymosan A-induced writhing response administered 30 mins prior to zymosan A-challenge; format: functional
[10] = system: Mus musculus; assay: Antinociceptive activity in Swiss mouse assessed inhibition of formaldehyde-induced paw licking at 0.62 mmol/kg, ip administered 30 mins prior to formaldehyde-challenge measured from 15 to 30 mins; format: functional, organism-based
[11] = system: Rattus norvegicus; assay: Antiinflammatory activity in Wistar rat assessed as inhibition of carrageenan-induced paw edema at 0.31 mmol/kg, ip administered 30 mins prior to carrageenan-challenge measured at 2 hrs; format: functional, organism-based
[12] = system: Rattus norvegicus; assay: Antiinflammatory activity in Wistar rat assessed as inhibition of carrageenan-induced paw edema at 0.62 mmol/kg, ip administered 30 mins prior to carrageenan-challenge measured at 2 hrs; format: functional, organism-based
[13] = system: Mus musculus; assay: Neurotoxicity in Swiss mouse assessed as motor coordination by measuring change in time spent on rotating rod at 0.62 mmol/kg, ip administered 30 mins prior to testing; format: toxicity, organism-based; details: in vivo, 0.5 h
[14] = system: Mus musculus; assay: Antinociceptive activity in Swiss mouse assessed inhibition of formaldehyde-induced paw licking at 0.62 mmol/kg, ip administered 30 mins prior to formaldehyde-challenge measured up to 5 mins; format: functional, organism-based

logP [2]	SMILES	inhibition [1]	inhibition [4]	inhibition [5]	inhibition [6]	inhibition [7]	inhibition [8]	also measured
0.31	NC(=O)N/N=C/c1ccc(O)cc1					inactive	inactive	
0.85	NC(=O)N/N=C/c1ccccc1O			inactive	inactive	Active	Active	MED [9]: 0.16 mmol/kg; inhibition [10]: Active; inhibition [11]: Active; inhibition [12]: Active; Activity [13]: Non-toxic; inhibition [14]: inactive
0.43	NC(=O)N/N=C/c1cccc(O)c1					inactive	inactive	

More lines, now with the values behind:

SMILES	logP [2]	inhibition [1]	inhibition [4]	inhibition [5]	inhibition [6]	inhibition [7]	inhibition [8]	also measured
O=Cc1ccccc1		inactive						
NC(=O)N/N=C/c1ccccc1	0.91	Active	Active	inactive	inactive			inhibition [3]: inactive
NNC(N)=O		Active	inactive	Active	Active			
